US9359308B2, “Pyrazine kinase inhibitors” (Portola Pharmaceuticals, Inc., priority 2011, dated 2016)

Molecular target: T1, full length active recombinant SYK enzyme (Homo sapiens, UniProt P43405)
T1 construct: full length active recombinant SYK enzyme (Millipore, Calif.); purchased Millipore
Test: Inhibition of Syk tyrosine phosphorylation activity (LANCE TR-FRET kinase assay)
Type: biochemical
Details: activity in the Syk assays, class symbols
In short: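 1 nM full-length active recombinant SYK phosphorylated 550 nM biotin-DEEDYESP-OH with 100 μM ATP in 50 mM Tris pH 7.5, 5 mM MgCl2, 1 mM DTT and 3% DMSO for 1 h at room temperature. After EDTA quench, Eu-anti-phosphotyrosine/SA-APC TR-FRET was read after 1 h. IC50s came from non-linear regression.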

Row | Structure (SMILES) | IC50 [nM]
1 | CN(C)C(=O)c1ccc(Nc2nc(N[C@@H]3CCCC[C@@H]3N)cnc2C(N)=O)cn1 [Example 278, 5-((1R,2S)-2-aminocyclohexylamino)-3-(6-(dimethylcarbamoyl)pyridin-3-ylamino)pyrazine-2-carboxamide] | 100 to 1000
2 | CN(C)C(=O)c1ccc(Nc2nc(N[C@@H]3CCCC[C@@H]3N)cnc2C(N)=O)cc1Cl [Example 279, 5-((1R,2S)-2-aminocyclohexylamino)-3-(3-chloro-4-(dimethylcarbamoyl)phenylamino)pyrazine-2-carboxamide] | 10 to 100
3 | NC(=O)c1ncc(N[C@@H]2CCCC[C@@H]2N)nc1Nc1ccc(C(=O)N2CCC2)nc1 [Example 280, 5-((1R,2S)-2-aminocyclohexylamino)-3-(6-(azetidine-1-carbonyl)pyridin-3-ylamino)pyrazine-2-carboxamide] | 10 to 100
4 | CC(C)C[C@@H](Nc1cnc(C(N)=O)c(Nc2ccc(C(=O)N(C)C)cc2)n1)C(N)=O [Example 281, (R)-5-(1-amino-4-methyl-1-oxopentan-2-ylamino)-3-(4-(dimethylcarbamoyl)phenylamino)pyrazine-2-carboxamide] | 10 to 100
5 | CC(C)C[C@@H](Nc1cnc(C(N)=O)c(Nc2ccc(C(=O)N3CCC3)nc2)n1)C(N)=O [Example 282, (R)-5-(1-amino-4-methyl-1-oxopentan-2-ylamino)-3-(6-(azetidine-1-carbonyl)pyridin-3-ylamino)pyrazine-2-carboxamide] | 1 to 10
6 | CN(C)C(=O)c1cccc(Nc2nc(N[C@@H]3CCCC[C@@H]3N)cnc2C(N)=O)c1 [Example 283, 5-((1R,2S)-2-aminocyclohexylamino)-3-(3-(dimethylcarbamoyl)phenylamino)pyrazine-2-carboxamide] | 10 to 100
7 | CN(C)C(=O)c1cc(Nc2nc(N[C@@H]3CCCC[C@@H]3N)cnc2C(N)=O)ccc1F [Example 284, 5-((1R,2S)-2-aminocyclohexylamino)-3-(3-(dimethylcarbamoyl)-4-fluorophenylamino)pyrazine-2-carboxamide] | 100 to 1000
8 | NC(=O)c1ncc(N[C@@H]2CCCC[C@@H]2N)nc1Nc1ccc(N2CCCC2)c(C(=O)N2CCCC2)c1 [Example 285, 5-((1R,2S)-2-aminocyclohexylamino)-3-(4-(pyrrolidin-1-yl)-3-(pyrrolidine-1-carbonyl)phenylamino)pyrazine-2-carboxamide] | 100 to 1000
9 | COc1ccc(Nc2nc(N[C@@H]3CCCC[C@@H]3N)cnc2C(N)=O)cc1C(=O)N(C)C [Example 286, 5-((1R,2S)-2-aminocyclohexylamino)-3-(3-(dimethylcarbamoyl)-4-methoxyphenylamino)pyrazine-2-carboxamide] | 100 to 1000
10 | NC(=O)c1ncc(N[C@@H]2CCCC[C@@H]2N)nc1Nc1cccc(C(=O)N2CCCC2)c1 [Example 287, 5-((1R,2S)-2-aminocyclohexylamino)-3-(3-(pyrrolidine-1-carbonyl)phenylamino)pyrazine-2-carboxamide] | 10 to 100
11 | CN(C)C(=O)c1ccc(F)c(Nc2nc(N[C@@H]3CCCC[C@@H]3N)cnc2C(N)=O)c1 [Example 288, 5-((1R,2S)-2-aminocyclohexylamino)-3-(5-(dimethylcarbamoyl)-2-fluorophenylamino)pyrazine-2-carboxamide] | 100 to 1000
12 | NC(=O)c1ncc(N[C@@H]2CCCC[C@@H]2N)nc1Nc1cc(C(=O)N2CCCC2)ccc1F [Example 289, 5-((1R,2S)-2-aminocyclohexylamino)-3-(2-fluoro-5-(pyrrolidine-1-carbonyl)phenylamino)pyrazine-2-carboxamide] | 10 to 100
13 | COc1ccc(C(=O)N(C)C)cc1Nc1nc(N[C@@H]2CCCC[C@@H]2N)cnc1C(N)=O [Example 290, 5-((1R,2S)-2-aminocyclohexylamino)-3-(5-(dimethylcarbamoyl)-2-methoxyphenylamino)pyrazine-2-carboxamide] | 100 to 1000
14 | COc1cc(Nc2nc(N[C@@H]3CCCC[C@@H]3N)cnc2C(N)=O)ccn1 [Example 291, 5-((1R,2S)-2-aminocyclohexylamino)-3-(2-methoxypyridin-4-ylamino)pyrazine-2-carboxamide] | 1 to 10
15 | CC(C)C[C@@H](Nc1cnc(C(N)=O)c(Nc2cccc(C(=O)N(C)C)c2)n1)C(N)=O [Example 292, (R)-5-(1-amino-4-methyl-1-oxopentan-2-ylamino)-3-(3-(dimethylcarbamoyl)phenylamino)pyrazine-2-carboxamide] | 100 to 1000
16 | CC(C)C[C@@H](Nc1cnc(C(N)=O)c(Nc2ccc(C(=O)N3CCC3)cc2)n1)C(N)=O [Example 293, (R)-5-(1-amino-4-methyl-1-oxopentan-2-ylamino)-3-(4-(azetidine-1-carbonyl)phenylamino)pyrazine-2-carboxamide] | 1 to 10
17 | CC(C)C[C@@H](Nc1cnc(C(N)=O)c(Nc2ccc(C(=O)O)nc2)n1)C(N)=O [Example 294, (R)-5-(6-(1-amino-4-methyl-1-oxopentan-2-ylamino)-3-carbamoylpyrazin-2-ylamino)picolinic acid] | 100 to 1000
18 | NC(=O)c1ncc(N[C@@H]2CCCC[C@@H]2N)nc1Nc1ccc(C(=O)N2CCC2)cc1 [Example 295, 5-((1R,2S)-2-aminocyclohexylamino)-3-(4-(azetidine-1-carbonyl)phenylamino)pyrazine-2-carboxamide] | 1 to 10
19 | COc1ccc(Nc2nc(N[C@@H]3CCCC[C@@H]3N)cnc2C(N)=O)cn1 [Example 296, 5-((1R,2S)-2-aminocyclohexylamino)-3-(6-methoxypyridin-3-ylamino)pyrazine-2-carboxamide] | 1 to 10
20 | NC(=O)c1ncc(N[C@@H]2CCCC[C@@H]2N)nc1Nc1ccc(C(=O)N2CC(F)(F)C2)nc1 [Example 297, 5-((1R,2S)-2-aminocyclohexylamino)-3-(6-(3,3-difluoroazetidine-1-carbonyl)pyridin-3-ylamino)pyrazine-2-carboxamide] | 1 to 10

Results, then the compound that gave them:

Row | IC50 [nM] | Structure (SMILES)
21 | 10 to 100 | CN(CC(F)(F)F)C(=O)c1ccc(Nc2nc(N[C@@H]3CCCC[C@@H]3N)cnc2C(N)=O)cc1 [Example 298, 5-((1R,2S)-2-aminocyclohexylamino)-3-(4-(methyl(2,2,2-trifluoroethyl)carbamoyl)phenylamino)pyrazine-2-carboxamide]
22 | 100 to 1000 | CC[C@@H](Nc1cnc(C(N)=O)c(Nc2ccc(C(=O)N(C)C)cc2)n1)C(N)=O [Example 299, (R)-5-(1-amino-1-oxobutan-2-ylamino)-3-(4-(dimethylcarbamoyl)phenylamino)pyrazine-2-carboxamide]
23 | 10 to 100 | CC[C@@H](Nc1cnc(C(N)=O)c(Nc2ccc(C(=O)N3CCC3)nc2)n1)C(N)=O [Example 300, (R)-5-(1-amino-1-oxobutan-2-ylamino)-3-(6-(azetidine-1-carbonyl)pyridin-3-ylamino)pyrazine-2-carboxamide]
24 | 10 to 100 | CC[C@@H](Nc1cnc(C(N)=O)c(Nc2ccc(C(=O)N3CC(F)(F)C3)nc2)n1)C(N)=O [Example 301, (R)-5-(1-amino-1-oxobutan-2-ylamino)-3-(6-(3,3-difluoroazetidine-1-carbonyl)pyridin-3-ylamino)pyrazine-2-carboxamide]
25 | 10 to 100 | CC[C@@H](Nc1cnc(C(N)=O)c(Nc2ccnc(OC)c2)n1)C(N)=O [Example 302, (R)-5-(1-amino-1-oxobutan-2-ylamino)-3-(2-methoxypyridin-4-ylamino)pyrazine-2-carboxamide]
26 | 10 to 100 | NC(=O)c1ncc(N[C@@H]2CCCC[C@@H]2N)nc1Nc1cncnc1 [Example 303, 5-((1R,2S)-2-aminocyclohexylamino)-3-(pyrimidin-5-ylamino)pyrazine-2-carboxamide]
27 | 10 to 100 | NC(=O)c1ncc(N[C@@H]2CCCC[C@@H]2N)nc1Nc1ccc(F)nc1 [Example 304, 5-((1R,2S)-2-aminocyclohexylamino)-3-(6-fluoropyridin-3-ylamino)pyrazine-2-carboxamide]
28 | 10 to 100 | COc1ncc(Nc2nc(N[C@@H]3CCCC[C@@H]3N)cnc2C(N)=O)cn1 [Example 305, 5-((1R,2S)-2-aminocyclohexylamino)-3-(2-methoxypyrimidin-5-ylamino)pyrazine-2-carboxamide]
29 | 1 to 10 | COc1ncc(Nc2nc(N[C@@H]3CCCC[C@@H]3N)cnc2C(N)=O)cc1C [Example 306, 5-((1R,2S)-2-aminocyclohexylamino)-3-(6-methoxy-5-methylpyridin-3-ylamino)pyrazine-2-carboxamide]
30 | 10 to 100 | NC(=O)c1ncc(N[C@@H]2CCCC[C@@H]2N)nc1Nc1cccc(C(=O)N2CCC2)c1 [Example 307, 5-((1R,2S)-2-aminocyclohexylamino)-3-(3-(azetidine-1-carbonyl)phenylamino)pyrazine-2-carboxamide]
31 | 1 to 10 | CCOc1ccc(Nc2nc(N[C@@H]3CCCC[C@@H]3N)cnc2C(N)=O)cn1 [Example 308, 5-((1R,2S)-2-aminocyclohexylamino)-3-(6-ethoxypyridin-3-ylamino)pyrazine-2-carboxamide]
32 | 1 to 10 | COc1cncc(Nc2nc(N[C@@H]3CCCC[C@@H]3N)cnc2C(N)=O)c1 [Example 309, 5-((1R,2S)-2-aminocyclohexylamino)-3-(5-methoxypyridin-3-ylamino)pyrazine-2-carboxamide]
33 | 10 to 100 | CC[C@@H](Nc1cnc(C(N)=O)c(Nc2ccc(N(C)C)nc2)n1)C(N)=O [Example 310, (R)-5-(1-amino-1-oxobutan-2-ylamino)-3-(6-(dimethylamino)pyridin-3-ylamino)pyrazine-2-carboxamide]
34 | 10 to 100 | CC[C@@H](Nc1cnc(C(N)=O)c(Nc2cnc(OC)c(C)c2)n1)C(N)=O [Example 311, (R)-5-(1-amino-1-oxobutan-2-ylamino)-3-(6-methoxy-5-methylpyridin-3-ylamino)pyrazine-2-carboxamide]
35 | 1 to 10 | COc1ccc(Nc2nc(N[C@H](CC(C)C)C(N)=O)cnc2C(N)=O)cn1 [Example 312, (R)-5-(1-amino-4-methyl-1-oxopentan-2-ylamino)-3-(6-methoxypyridin-3-ylamino)pyrazine-2-carboxamide]
